This note sets out measurements from US9637473B2, “Acrylamide derivatives as antimalarial agents” (priority 2013, dated 2017).

For the experiment, the system named is P. Falciparum NF54. In words: Plasmodium falciparum in vitro assay ([3H]-hypoxanthine incorporation). Format: cell-based. Particulars: Plasmodium falciparum, Erythrocyte, P. Falciparum NF54, erythrocytic stages in human red blood cells, 50% human serum. As to the method: In Vitro Antimalarial Activity: Plasmodium falciparum In Vitro Assay: In vitro activity against erythrocytic stages of P. Falciparum in human red blood cells is determined using a [^3H]-hypoxanthine incorporation assay. One strain sensitive to all drugs (P. […] After 48 hours, [^3H]-hypoxanthine (0.5 μCi) is added to each well of a plate. The plates are incubated for a further 24 hours under the same conditions then harvested with a Betaplate cell harvester (Wallac) and washed with distilled water. The dried filters are inserted into a plastic foil with 10 mL of scintillation fluid and counted in a Betaplate liquid scintillation counter. IC50 values are calculated from sigmoidal inhibition curves using Microsoft Excel.
Broadly, the IC50 is the midpoint of a concentration-inhibition curve. Higher therefore signals weaker potency. Turning to `CN(C)CCCOc1ccc(CN(C(=O)/C=C/c2ccc(C(F)(F)F)cc2)C2CCN(C3CCCC3)CC2)cc1` [Example 205, (E)-N-(1-Cyclopentyl-piperidin-4-yl)-N-[4-(3-dimethylamino-propoxy)-benzyl]-3-(4-trifluoromethyl-phenyl)-acrylamide], the IC50 came to 0.082 µM. Next, `CN(c1ccncc1)c1ccc(CN(C(=O)/C=C/c2ccc(C(F)(F)F)cc2)C2CCN(Cc3cncn3C)CC2)cc1` [Example 19, (E)-N-[1-(3-Methyl-3H-imidazol-4-ylmethyl)-piperidin-4-yl]-N-[4-(methyl-pyridin-4-yl-amino)-benzyl]-3-(4-trifluoromethyl-phenyl)-acrylamide]: 0.054 µM. Then `CN(c1ccncc1)c1ccc(CN(C(=O)/C=C/c2ccc(C(F)(F)F)cc2)C2CCN(Cc3ccc(C#N)cc3)CC2)cc1` [Example 27, (E)-N-[1-(4-Cyano-benzyl)-piperidin-4-yl]-N-[4-(methyl-pyridin-4-yl-amino)-benzyl]-3-(4-trifluoromethyl-phenyl)-acrylamide], with 0.064 µM; and `Cc1cc(Nc2ccc(CN(C(=O)/C=C/c3ccc(C(F)(F)F)cc3)C3CCN(Cc4ncn5ccccc45)CC3)cc2)ccn1` [Example 45, (E)-N-(1-Imidazo[1,5-a]pyridin-1-ylmethyl-piperidin-4-yl)-N-[4-(2-methyl-pyridin-4-ylamino)-benzyl]-3-(4-trifluoromethyl-phenyl)-acrylamide], with 0.168 µM. `CCN1CCC[C@H](N(Cc2ccc(N(C)c3ccncc3)cc2)C(=O)/C=C/c2ccc(C(F)(F)F)cc2)C1` [Example 82, (E)-N-((S)-1-Ethyl-piperidin-3-yl)-N-[4-(methyl-pyridin-4-yl-amino)-benzyl]-3-(4-trifluoromethyl-phenyl)-acrylamide] registered a concentration for half-maximal inhibition (IC50) of 0.14 µM.

Take `Cc1cc(N(C)c2ccc(CN(C(=O)/C=C/c3ccc(C(F)(F)F)cc3)C3CCN(C4CCCC4)CC3)cc2)ccn1` [Example 184, (E)-N-(1-Cyclopentyl-piperidin-4-yl)-N-{4-[methyl-(2-methyl-pyridin-4-yl)-amino]-benzyl}-3-(4-trifluoromethyl-phenyl)-acrylamide]: the IC50 was 0.044 µM. Next, `Cc1cc(Oc2ccc(CN(C(=O)/C=C/c3ccc(C(F)(F)F)cc3)C3CCN(C4CCCC4)CC3)cc2)cc(C)n1` [Example 208, (E)-N-(1-Cyclopentyl-piperidin-4-yl)-N-[4-(2,6-dimethyl-pyridin-4-yloxy)-benzyl]-3-(4-trifluoromethyl-phenyl)-acrylamide]: 0.082 µM. Next, `O=C(/C=C/c1ccc(C(F)(F)F)cc1)N(Cc1ccc(-c2cccnc2)cc1)C1CCN(C2CCCC2)CC1` [Example 197, (E)-N-(1-Cyclopentyl-piperidin-4-yl)-N-(4-pyridin-3-yl-benzyl)-3-(4-trifluoromethyl-phenyl)-acrylamide]: 0.184 µM. Next, `Cc1cc(Nc2ccc(CN(C(=O)/C=C/c3ccc(C(F)(F)F)cc3)C3CCN(CCC(F)(F)F)CC3)cc2)ccn1` [Example 39, (E)-N-[4-(2-Methyl-pyridin-4-ylamino)-benzyl]-3-(4-trifluoromethyl-phenyl)-N-[1-(3,3,3-trifluoro-propyl)-piperidin-4-yl]-acrylamide]: 0.155 µM; `Cc1cc(Nc2ccc(CN(C(=O)/C=C/c3ccc(C(F)(F)F)cc3)C3CCN(Cc4cnc5ccccn45)CC3)cc2)ccn1` [Example 38, (E)-N-(1-Imidazo[1,2-a]pyridin-3-ylmethyl-piperidin-4-yl)-N-[4-(2-methyl-pyridin-4-ylamino)-benzyl]-3-(4-trifluoromethyl-phenyl)-acrylamide]: 0.1 µM; `CN(c1ccncc1)c1ccc(CN(C(=O)/C=C/c2ccc(C(F)(F)F)cc2)[C@H]2CC[C@@H](N(C)C)CC2)cc1` [Example 191, (±)-cis-(E)-N-(4-Dimethylamino-cyclohexyl)-N-[4-(methyl-pyridin-4-yl-amino)-benzyl]-3-(4-trifluoromethyl-phenyl)-acrylamide]: 0.034 µM.
